Source: patent US10722518B2, “Oxazine derivative for use in the treatment or prevention of cerebral amyloid angiopathy” (Novartis AG, priority 2016, dated 2020)

System: amyloid-beta in CD31-positive vessels
Experiment: Assessment of CAA in APP23 mice by CD31/NT12 double fluorescence immunohistochemistry and image analysis
Type: in vivo, mouse
Description: Amyloid plaques were stained using a rabbit anti-Aβ primary antibody (NT12) which recognizes the C-terminal part of the amyloid peptide (the antibody was raised as described in Schrader-Fischer G and Paganetti P A, 1996, and Schrader-Fischer G et al., 1997). The vascular endothelial cells were detected using a rat anti-CD31 antibody (reference DIA310) from Dianova GmbH (Hamburg, Germany). All stainings were performed using the fully automated instrument Ventana Discovery® Ultra (Roche Diagnostics Schweiz AG, Rotkreuz, Switzerland). All chemicals were provided by Roche Diagnostic.
All study animals were used and brain tissue sections of 3 micrometers were freshly cut and collected on SuperFrost+ slides. The tissues sections were de-paraffinized and rehydrated under solvent-free conditions (EZprep solution) followed by antigen retrieval (demasking) performed by heat retrieval cycles for 32 min in a EDTA based buffer (CC1 solution). Subsequently, slides were blocked for 4 min using the DISCOVERY Inhibitor (reference 07017944001 (Roche)). The primary antibody diluted at 1/10′000 in antibody diluent was manually added on tissue sections and incubated for 1 h at room temperature. A short post-fixation (glutaraldehyde at 0.05%) was performed before applying the multimer UltraMap-anti Rabbit HRP ready to use antibody (reference 05269717001) for 16 min.
Detection was performed using the DISCOVERY FITC® following the manufacturer's recommendations. Slides were then heat denaturated at 92° C. for 20 min before a manual application of the second primary antibody (rat anti-CD31 diluted at 1/1′000 in antibody diluent) and incubated for 1 h. Multimer UltraMap-anti-Rat HRP antibody (reference 05891884001) was used for 20 min to detect CD31 in combination with the DISCOVERY Rhodamine kit (reference 07259883001).
The slides were washed and mounted using Prolong® Gold antifade reagent (reference P36931, ThermoFisher, Switzerland) and further scanned with the Hamamatsu slide scanner instrument (NanoZoomer 2.0 HT, scanning software NDP-Scan Vers. 2.5, Hamamatsu Photonics France, Swiss Office, Solothurn, Switzerland) at the 40× objective. The scanning settings were as follows: the exposure time with the DAPI filter was set at 28.5 ms as well as for the FITC filter and TRITC filter (detection of Rhodamine).
For the quantitative plaque and vessel-associated amyloid-beta evaluation based on image analysis, a proprietary image analysis platform (ASTORIA, Automated Stored Image Analysis) was developed based on MS Visual Studio 2010 and many functions from Matrox MIL V9 libraries (Matrox Inc, Quebec, Canada).
For the beta-amyloid plaque and vessel analysis, the following sequence of steps was performed: • Slides were scanned with Hamamatsu Nanozoomer at 40× magnification. […]

[1] = 0.3 g/kg food, 6 months, all CD31+ vessels
[2] = 0.3 g/kg food, 6 months, large CD31-positive vessels
[3] = 0.3 g/kg vs vehicle, all CD31+ vessels
[4] = 0.3 g/kg vs vehicle, large vessels
[5] = 0.3 g/kg vs vehicle, small + medium vessels

C[C@@]1(c2nc(NC(=O)c3ncc(C(F)(F)F)cc3Cl)ccc2F)CO[C@@](C)(C(F)(F)F)C(N)=N1 [Compound 1, N-(6-((3R,6R)-5-amino-3,6-dimethyl-6-(trifluoromethyl)-3,6-dihydro-2H-1,4-oxazin-3-yl)-5-fluoropyridin-2-yl)-3-chloro-5-(trifluoromethyl)picolinamide]
% of large vessels with 0% Aβ (0.3 g/kg food, 6 months): 10.3 ± 1.56%
% of large vessels with 1-10% Aβ (0.3 g/kg food, 6 months): 21.6 ± 2.31%
% of large vessels with 10-25% Aβ (0.3 g/kg food, 6 months): 9.48 ± 1.85%
% of large vessels with 25-50% Aβ (0.3 g/kg food, 6 months): 20.6 ± 3.66%
% of large vessels with 50-75% Aβ (0.3 g/kg food, 6 months): 28.8 ± 3.3%
% of large vessels with >10% Aβ (0.3 g/kg food, 6 months): 68.1 ± 3.03%
% of large vessels with >75% Aβ (0.3 g/kg food, 6 months): 9.27 ± 2.77%
% of small + medium vessels with 0% Aβ (0.3 g/kg food, 6 months): 80.2 ± 1.61%
% of small + medium vessels with 1-10% Aβ (0.3 g/kg food, 6 months): 10.8 ± 1.12%
% of small + medium vessels with 10-25% Aβ (0.3 g/kg food, 6 months): 2.75 ± 0.20%
% of small + medium vessels with 25-50% Aβ (0.3 g/kg food, 6 months): 2.38 ± 0.25%
% of small + medium vessels with 50-75% Aβ (0.3 g/kg food, 6 months): 1.73 ± 0.21%
% of small + medium vessels with >10% Aβ (0.3 g/kg food, 6 months): 8.95 ± 0.8%
% of small + medium vessels with >75% Aβ (0.3 g/kg food, 6 months): 2.07 ± 0.33%
CAA Frequency (number small + medium vessels with >10% Aβ normalized to sample area, *10^7) (0.3 g/kg food, 6 months): 56 ± 6.1
Number of large CD31+ vessels (normalized to total CD31 positive vessel numbers in %) (0.3 g/kg food, 6 months): 1.49 ± 0.12%
Number of small + medium CD31+ vessels (normalized to total CD31 positive small + medium vessel numbers in %) (0.3 g/kg food, 6 months): 98.5 ± 0.12%
Number small + medium vessels with >10% Aβ, mean ± SEM (0.3 g/kg food, 6 months): 195 ± 21.9
Total number CD31+ vessels (normalized to total sample area, *10^5), mean ± SEM (0.3 g/kg food, 6 months): 6.46 ± 0.37
Total vessel-associated NT12 area (normalized to total small + medium CD31+ vessel area) (0.3 g/kg food, 6 months): 0.194 ± 0.0201
% of vessels with 0% Aβ [1]: 79.2 ± 1.63%
% of vessels with 1-10% Aβ [1]: 11 ± 1.1%
% of vessels with 10-25% Aβ [1]: 2.87 ± 0.21%
% of vessels with 25-50% Aβ [1]: 2.65 ± 0.25%
% of vessels with 50-75% Aβ [1]: 2.12 ± 0.24%
% of vessels with >10% Aβ [1]: 9.82 ± 0.85%
% of vessels with >75% Aβ [1]: 2.19 ± 0.36%
CAA Frequency (number vessels with >10% Aβ normalized to sample area, *10^7) [1]: 70 ± 7.6
Number vessels with >10% Aβ, mean ± SEM [1]: 217 ± 23.6
Total vessel-associated NT12 area (normalized to total CD31+ area) [1]: 0.47 ± 0.04
CAA Frequency (number vessels with >10% Aβ normalized to sample area, *10^7) [2]: 6.5 ± 0.6
Number vessels with >10% Aβ, mean ± SEM [2]: 22 ± 2.2
Total vessel-associated NT12 area (normalized to total CD31+ area) [2]: 0.77 ± 0.04
% of large vessels with 0% Aβ, treatment effect vs vehicle (0.3 g/kg vs vehicle): −8%
% of large vessels with 1-10% Aβ, treatment effect vs vehicle (0.3 g/kg vs vehicle): +48%
% of large vessels with 10-25% Aβ, treatment effect vs vehicle (0.3 g/kg vs vehicle): +35%
% of large vessels with 25-50% Aβ, treatment effect vs vehicle (0.3 g/kg vs vehicle): +7%
% of large vessels with 50-75% Aβ, treatment effect vs vehicle (0.3 g/kg vs vehicle): −12%
% of large vessels with >10% Aβ, treatment effect vs vehicle (0.3 g/kg vs vehicle): −8%
% of large vessels with >75% Aβ, treatment effect vs vehicle (0.3 g/kg vs vehicle): −36%
% of small + medium vessels with 0% Aβ, treatment effect vs vehicle (0.3 g/kg vs vehicle): +9%
% of small + medium vessels with 1-10% Aβ, treatment effect vs vehicle (0.3 g/kg vs vehicle): −15%
% of small + medium vessels with 10-25% Aβ, treatment effect vs vehicle (0.3 g/kg vs vehicle): −35%
% of small + medium vessels with 25-50% Aβ, treatment effect vs vehicle (0.3 g/kg vs vehicle): −39%
% of small + medium vessels with 50-75% Aβ, treatment effect vs vehicle (0.3 g/kg vs vehicle): −35%
% of small + medium vessels with >10% Aβ, treatment effect vs vehicle (0.3 g/kg vs vehicle): −36%
% of small + medium vessels with >75% Aβ, treatment effect vs vehicle (0.3 g/kg vs vehicle): −34%
Total small + medium vessel-associated NT12 area (normalized to total CD31+ small + medium vessel area), treatment effect vs vehicle (0.3 g/kg vs vehicle): −28% p < 0.05
% of vessels with 0% Aβ, treatment effect vs vehicle [3]: +9%
% of vessels with 1-10% Aβ, treatment effect vs vehicle [3]: −13%
% of vessels with 10-25% Aβ, treatment effect vs vehicle [3]: −32%
% of vessels with 25-50% Aβ, treatment effect vs vehicle [3]: 36%
% of vessels with 50-75% Aβ, treatment effect vs vehicle [3]: −33%
% of vessels with >10% Aβ, treatment effect vs vehicle [3]: −34%
% of vessels with >75% Aβ, treatment effect vs vehicle [3]: −34%
CAA Frequency, treatment effect vs vehicle [3]: −29% p < 0.05
Number vessels with >10% Aβ, treatment effect vs vehicle [3]: −39% p < 0.001
Total vessel-associated NT12 area (normalized to total CD31+ area), treatment effect vs vehicle [3]: −19% n.s.
CAA Frequency, treatment effect vs vehicle [4]: −17% n.s.
Number vessels with >10% Aβ, treatment effect vs vehicle [4]: −21% n.s.
Total vessel-associated NT12 area (normalized to total CD31+ area), treatment effect vs vehicle [4]: −4% n.s.
CAA Frequency, treatment effect vs vehicle [5]: −37% p < 0.005
Number vessels with >10% Aβ, treatment effect vs vehicle [5]: −40% p < 0.001
